Data published in patent US6153653A, “Choline compositions and uses thereof” (Protarga, Inc., priority 1997, dated 2000).
Several values for one entry are separate records, joined by “and”; a condition that tells them apart may be missing. Equal entries are not always repeated. Entries after “also recorded” stand apart in the source; their conditions may differ.

Legend:
[1] = cited from earlier work
[2] = in vivo; cited from earlier work
Solubility = format: physicochemical
[3] = tested on: MCA occlusions of rat brain; experiment: Middle cerebral artery occlusion-reperfusion stroke model, infarct by triphenyltetrazolium chloride staining; format: in vivo; details: for Infarct volume (% of control non-occluded side of brain), Average: vehicle average 35.5
Procedure: Two sets of experiments were carried out. In the first set, rats were administered with 50 mg/kg of DHA-choline i.p. at 30 minutes prior to occlusion of the middle cerebral artery of the left side of the brain using a standard highly reproducible animal model of stroke (Karpiak et al., J. Neurosci. Res. 30:512-520, 1991). Occlusion of the middle cerebral artery inhibits blood flow to a major portion of the left cortical and subcortical regions of the brain. After a two hour period, the occluded blood vessel was opened to allow reperfusion of the brain, and anesthesia was terminated. Each animal received additional doses of 50 mg/kg of DHA-choline 24 and 48 hours later.
The animals were sacrificed, perfused with formalin fixative, brains were sliced into seven 2 mm thick coronal sections, and stained with triphenyltetrazolium chloride (Watson et al., J. Neurosci. Methods 53:203-208, 1994). In this test, tissue that contains intact mitochondria stains red, whereas dead tissue with damaged mitochondria picks up no stain and remains white. Each unstained area on the left side of a section was measured and compared to the total area of the control non-occluded right side of the same section of the brain. The area of damaged (white) brain tissue cells was calculated as a percent of the intact right side of a section. […] (n=5 per group.)
In the second set of experiments (n=5), the identical occlusion-reperfusionrat model was used; only the time of administration of the drug was changed. DHA-choline was injected i.p. at a dose of 50 mg/kg at one hour after the beginning of the reperfusion, i.e., at three hours after the initiation of the stroke event. Controls (n=5) received an injection of the vehicle instead of the drug according to the same protocol.

[4] = tested on: locomotor activity of mice; experiment: Locomotor activity (locomotor depression) study, Digiscan chambers; format: in vivo, male Swiss-Webster mice (Hsd:ND4)
Procedure: A dose-response study of DHA-choline-induced locomotor depression was conducted using 40 Digiscan locomotor activity testing chambers (40.5×40.5×30.5 cm) housed in sets of two, within sound attenuating chambers. A panel of infrared beams (16 beams) and corresponding photo detectors were located in the horizontal direction along the sides of each activity chamber. A 7.5W incandescent light above each chamber provided dim illumination. Fans provided an 80-dB ambient noise level within the chamber. Separate groups of 8 non-habituated male Swiss-Webster mice (Hsd:ND4, aged 2-3 mo.) were injected via the intraperitoneal route (i.p.) with either vehicle or DHA-choline (0.5, 2.5, 5, 10, 20 or 40 mg/kg), 20 minutes prior to locomotor activity testing. In all studies, the total distance (cm traversed in the horizontal plane) was measured for 2 hours within 10 min periods.
The period 0-30 min was selected for analysis of dose-response data because this is the time period in which DHA-choline produced maximal effects. The mean average distance per 10 min for this 30 min period were fit to a linear function of log, dose of the descending portion of the dose-effect curve (0.5 to 40 mg/kg dose range).

Stability = format: physicochemical; details: for Stability on exposure in the air (in words): exposed in the air
[5] = relative to tPA; cited from earlier work
[6] = tested on: animal models, clinical trials, models of aging; details: cited from earlier work
[7] = 50 mg/kg i.p. at 30 min prior to occlusion

CC/C=C\C/C=C\C/C=C\C/C=C\C/C=C\C/C=C\CCC(=O)O [DHA, cis-docosahexaenoic acid]
Stability in the presence of oxygen (in words) [1]: can be unstable in the presence of oxygen | crossing the blood-brain barrier (in words) [2]: unusually effective in crossing the blood-brain barrier

Nc1ccn([C@@H]2O[C@H](CO)[C@@H](O)[C@H]2O)c(=O)n1 [cytidine]
crossing the blood-brain barrier (in words) [2]: cross the blood-brain barrier

CC/C=C\C/C=C\C/C=C\C/C=C\C/C=C\C/C=C\CCC(=O)OCC[N+](C)(C)C [DHA-choline, docosahexaenoyl choline iodide]
Solubility (solvents, in words) (Solubility): soluble in CH2 Cl2, CHCl3, EtOAc, EtOH insoluble in hexanes, Et2 O | decrease in number of dead cells [3, 7]: about 50% | Infarct volume (% of control non-occluded side of brain), individual animals ([3]; 50 mg/kg i.p. at 30 min prior to occlusion, Group No. 1 to 4): 22 % of control non-occluded side of brain and 19 % of control non-occluded side of brain and 16 % of control non-occluded side of brain and 20 % of control non-occluded side of brain | Infarct volume (% of control non-occluded side of brain), Average [3, 7]: 19.3 % of control non-occluded side of brain | Infarct volume (% of control non-occluded side of brain), individual animals ([3]; 50 mg/kg i.p. at 3 hours after occlusion, Group No. 1 to 5): 15 % of control non-occluded side of brain and 17 % of control non-occluded side of brain and 25 % of control non-occluded side of brain and 21 % of control non-occluded side of brain and 20 % of control non-occluded side of brain | Infarct volume (% of control non-occluded side of brain), Average ([3]; 50 mg/kg i.p. at 3 hours after occlusion): 19.6 % of control non-occluded side of brain | decrease in infarct volume ([3]; 50 mg/kg i.p. at three hours after initiation of stroke (one hour after beginning of reperfusion)): approximately 50% | one-way analysis of variance on total distance/10 min, F(6,49) ([4]; 0-30 min, overall effect): 10.5 | time period in which maximal effects were produced ([4]; i.p., after 20 min pretreatment): 0 to 30 min | Stability on exposure in the air (in words) (Stability): exposed in the air for 5 days showed that the compound had not decomposed; also recorded: if it is exposed in the air for too long will decompose | Stability on neutral alumina (in words) (Stability; purification on neutral alumina, 1H NMR): will result in other peaks on ^1 H NMR

C[N+](C)(C)CCO [choline]
crossing the blood-brain barrier (in words) [2]: cross the blood-brain barrier

tPA conjugated to polyethylene glycol: conjugation of tPA to polyethylene glycol (EP-A304,311)
clearance rate (in words) [5]: reduce the clearance rate of tPA

C[N+](C)(C)CCOP(=O)(O)OP(=O)([O-])OC[C@H]1O[C@@H](n2ccc(N)nc2=O)[C@H](O)[C@@H]1O [CDP-choline, Cytidine 5'-diphosphocholine]
neuroprotective effect; memory and learning deficits (in words) [6]: neuroprotective effect in animal models and in clinical trials; also recorded: improves memory and learning deficits in models of aging | release on administration (in words) [2]: choline and cytidine are released into the systemic circulation

CC/C=C\C/C=C\C/C=C\C/C=C\C/C=C\C/C=C\CCC(=O)OCCN(C)C [2-dimethylaminoethyl docosahexaenoate]
Solubility (solvents, in words) (Solubility): soluble in EtOAc, Et2 O, CH2 Cl2, CHCl3, EtOH insoluble in H2 O | Stability on exposure in the air (in words) (Stability): turns dark when exposed in the air for several days
